# Test results as given in patent publication US20020132802A1, “Cytoprotective polycyclic compounds” (Washington Univeristy, priority 2000, published 2002).
# Read-outs that look alike come from different tables or passages of the source.
# Test system: HT-22 cells
# Test: HT-22 Cell Neuroprotection Assay (glutamate-induced cell death, calcein AM viability)
# Format: cell-based, murine
# Conditions: about 16 h exposure
# Protocol: Method: HT-22 Cell Neuroprotection Assay
# HT-22 cells (immortalized hippocampal neurons of murine origin) were maintained in DMEM media (Life Technologies, Inc., Gaitherburg, Md.) supplemented with 10% charcoal-stripped FBS (HyClone Laboratories, Inc., Logan, Utah) and 20 μg/mL gentamycin, according to standard culture conditions.
# Cells were plated at a density of 5,000 cells/well in clear-bottomed Nunc 96-well plates (Fisher Scientific, Orlando, Fla.) and allowed to incubate overnight. Steroids dissolved in DMSO were added at concentrations ranging from 0.01-10 μM and were co-administered with glutamate (10 mM or 20 mM). DMSO was used at concentrations of 0.1% vol/vol as a vehicle control and had no discernible effect on cell viability. After about 16 h of glutamate exposure, cells were rinsed with PBS, pH 7.4, and viability was assessed by the addition of 25 μM calcein AM (Molecular Probes, Inc., Eugene, Oreg.) in PBS for 15 min at room temperature. Fluorescence was determined (excitation 485 nm, emission 530 nm) using a fluorescence FL600 microplate reader (Biotek, Winooski, Vt.). Cells that were lysed by addition of methanol were used for blank readings. All data were normalized to % cell death, as calculated by (control value −insult value)/control value×100.
Compound,"EC50 (co-administered with 10 mM glutamate, read-out: Steroid concentration needed to protect 50% of neurons killed by 10 mM Glutamate ED50) [µM]","EC50 (co-administered with 20 mM glutamate, read-out: Steroid concentration needed to protect 50% of neurons killed by 20 mM Glutamate ED50) [µM]","EC50 (Mus musculus, co-administered with 10 mM glutamate, read-out: Steroid concentration needed to protect 50% of neurons killed by 10 mM Glutamate ED50) [µM]"
C[C@@]12CC=C3c4ccc(O)cc4CC[C@@H]3[C@H]1CC[C@H]2O [ZYC-12],0.53,1.43,–
"C[C@]12CC[C@@H]3c4ccc(O)cc4CC[C@H]3[C@@H]1CCC2=O [Estrone, estrone, reference compound]",–,–,3.03
